# According to patent publication US20220339143A1, “TAK-925 FOR USE IN TREATING NARCOLEPSY” (Takeda Pharmaceutical Company Limited, priority 2019, published 2022):
# Read-outs that look alike come from different tables or passages of the source.
# Test: Single dose PK in healthy subjects (Cohorts 1, 2, S1 and S2), plasma
# Assay type: in vivo, human
# Conditions: human, plasma, intravenous
# Protocol: This study investigates (i) the safety and tolerability of Compound A (methyl (2R,3S)-3-((methylsulfonyl)amino)-2-(((cis-4-phenylcyclohexyl)oxy)methyl)piperidine-1-carboxylate) when a single dose given as a 9 hour continuous IV infusion is administered to healthy adults, healthy elderly subjects and patients with narcolepsy type 1 (NT1); (ii) the pharmacokinetics of Compound A when a single dose given as a 9 hour continuous IV infusion is administered to healthy adults, healthy elderly subjects and patients with narcolepsy type 1; and (iii) the pharmacodynamics (PD) effects of Compound A, primarily by evaluation of the sleep latency on MWT when a single dose given as a 9 hour continuous IV infusion is administered to patients with narcolepsy type 1.
# Pharmacokinetics: Concentrations of Compound A in plasma, and CSF, and pharmacokinetics parameters.
# On average, the time to reach the plateau appeared to be approximately 3 to 4 hours after the start of infusion. […] After switching off the IV infusion, Compound A plasma concentrations declined rapidly and in a biphasic manner with a mean terminal disposition phase t1/2z ranging approximately from 3.4 to 5.1 hours across all doses. […] Table 5 provides a summary of plasma concentrations of Compound A after a single IV infusion in healthy subjects. Table 6 provides a summary of pharmacokinetic parameters of Compound A after a single IV infusion in healthy subjects.
# [1] = 112 mg, read-out: Plasma concentration, Median
# [2] = 112 mg, read-out: Plasma concentration, Minimum
# [3] = 112 mg, read-out: Plasma concentration, Q1
# [4] = 112 mg, read-out: Plasma concentration, Q3
# [5] = 112 mg, read-out: Plasma concentration, Maximum
# [6] = 112 mg, read-out: Plasma concentration, Mean
# [7] = 134.4 mg, read-out: Plasma concentration, Maximum
# [8] = 134.4 mg, read-out: Plasma concentration, Mean
# [9] = 134.4 mg, read-out: Plasma concentration, Median
# [10] = 134.4 mg, read-out: Plasma concentration, Minimum
# [11] = 134.4 mg, read-out: Plasma concentration, Q1
# [12] = 134.4 mg, read-out: Plasma concentration, Q3
compound,measurement,setting,value
"COC(=O)N1CCC[C@H](NS(C)(=O)=O)[C@@H]1CO[C@H]1CC[C@@H](c2ccccc2)CC1 [Compound A, methyl (2R,3S)-3-((methylsulfonyl)amino)-2-(((cis-4-phenylcyclohexyl)oxy)methyl)piperidine-1-carboxylate]",concentration at 1.5 h,[1],197 ng/mL
same,concentration at 1.5 h,[2],141 ng/mL
same,concentration at 1.5 h,[3],164 ng/mL
same,concentration at 1.5 h,[4],213 ng/mL
same,concentration at 2 h,[5],223 ng/mL
same,concentration at 2 h,[6],200 ng/mL
same,concentration at 2 h,[1],207 ng/mL
same,concentration at 2 h,[2],150 ng/mL
same,concentration at 2 h,[3],195 ng/mL
same,concentration at 2 h,[4],220 ng/mL
same,concentration at 3 h,[5],276 ng/mL
same,concentration at 3 h,[6],222 ng/mL
same,concentration at 3 h,[1],216 ng/mL
same,concentration at 3 h,[2],171 ng/mL
same,concentration at 3 h,[3],209 ng/mL
same,concentration at 3 h,[4],248 ng/mL
same,concentration at 4 h,[5],290 ng/mL
same,concentration at 4 h,[6],224 ng/mL
same,concentration at 4 h,[1],216 ng/mL
same,concentration at 4 h,[2],154 ng/mL
same,concentration at 4 h,[3],215 ng/mL
same,concentration at 4 h,[4],252 ng/mL
same,concentration at 6 h,[5],206 ng/mL
same,concentration at 6 h,[6],189 ng/mL
same,concentration at 6 h,[1],192 ng/mL
same,concentration at 6 h,[2],154 ng/mL
same,concentration at 6 h,[3],186 ng/mL
same,concentration at 6 h,[4],205 ng/mL
same,concentration at 8 h,[5],221 ng/mL
same,concentration at 8 h,[6],194 ng/mL
same,concentration at 8 h,[1],195 ng/mL
same,concentration at 8 h,[2],162 ng/mL
same,concentration at 8 h,[3],176 ng/mL
same,concentration at 8 h,[4],216 ng/mL
same,concentration at 9 h,[5],247 ng/mL
same,concentration at 9 h,[6],216 ng/mL
same,concentration at 9 h,[1],221 ng/mL
same,concentration at 9 h,[2],169 ng/mL
same,concentration at 9 h,[3],192 ng/mL
same,concentration at 9 h,[4],245 ng/mL
same,concentration at 0.5 h,[7],201 ng/mL
same,concentration at 0.5 h,[8],162 ng/mL
same,concentration at 0.5 h,[9],152 ng/mL
same,concentration at 0.5 h,[10],147 ng/mL
same,concentration at 0.5 h,[11],148 ng/mL
same,concentration at 0.5 h,[12],169 ng/mL
same,concentration at 1 h,[7],273 ng/mL
same,concentration at 1 h,[8],204 ng/mL
same,concentration at 1 h,[9],187 ng/mL
same,concentration at 1 h,[10],181 ng/mL
same,concentration at 1 h,[11],181 ng/mL
same,concentration at 1 h,[12],216 ng/mL
same,concentration at 1.5 h,[7],289 ng/mL
same,concentration at 1.5 h,[8],228 ng/mL
same,concentration at 1.5 h,[9],221 ng/mL
same,concentration at 1.5 h,[10],191 ng/mL
same,concentration at 1.5 h,[11],197 ng/mL
same,concentration at 1.5 h,[12],250 ng/mL
same,concentration at 2 h,[7],335 ng/mL
same,concentration at 2 h,[8],248 ng/mL
same,concentration at 2 h,[9],244 ng/mL
same,concentration at 2 h,[10],192 ng/mL
same,concentration at 2 h,[11],199 ng/mL
same,concentration at 2 h,[12],276 ng/mL
same,concentration at 3 h,[7],388 ng/mL
same,concentration at 3 h,[8],288 ng/mL
same,concentration at 3 h,[9],278 ng/mL
same,concentration at 3 h,[10],217 ng/mL
same,concentration at 3 h,[11],260 ng/mL
same,concentration at 3 h,[12],305 ng/mL
same,concentration at 4 h,[7],355 ng/mL
same,concentration at 4 h,[8],294 ng/mL
same,concentration at 4 h,[9],308 ng/mL
same,concentration at 4 h,[10],214 ng/mL
same,concentration at 4 h,[11],256 ng/mL
same,concentration at 4 h,[12],324 ng/mL
same,concentration at 6 h,[7],302 ng/mL
same,concentration at 6 h,[8],248 ng/mL
same,concentration at 6 h,[9],260 ng/mL
same,concentration at 6 h,[10],164 ng/mL
same,concentration at 6 h,[11],206 ng/mL
same,concentration at 6 h,[12],295 ng/mL
same,concentration at 8 h,[7],313 ng/mL
same,concentration at 8 h,[8],262 ng/mL
same,concentration at 8 h,[9],262 ng/mL
same,concentration at 8 h,[10],199 ng/mL
same,concentration at 8 h,[11],242 ng/mL
same,concentration at 8 h,[12],291 ng/mL
same,concentration at 9 h,[7],330 ng/mL
same,concentration at 9 h,[8],292 ng/mL
same,concentration at 9 h,[9],300 ng/mL
same,concentration at 9 h,[10],241 ng/mL
same,concentration at 9 h,[11],268 ng/mL
same,concentration at 9 h,[12],311 ng/mL
same,concentration at 0.5 h,"180 mg, read-out: Plasma concentration, Maximum",224 ng/mL
same,concentration at 0.5 h,"180 mg, read-out: Plasma concentration, Mean",180 ng/mL
same,concentration at 0.5 hr,"180 mg, read-out: Plasma concentration, Median",170 ng/mL
same,concentration at 0.5 hr,"180 mg, read-out: Plasma concentration, Minimum",161 ng/mL
same,concentration at 0.5 hr,"180 mg, read-out: Plasma concentration, Q1",163 ng/mL
same,concentration at 0.5 hr,"180 mg, read-out: Plasma concentration, Q3",194 ng/mL
